The values that follow come from ChEMBL document CHEMBL1255463, “Attenuation of colistin bactericidal activity by high inoculum of Pseudomonas aeruginosa characterized by a new mechanism-based population pharmacodynamic model” (Antimicrob Agents Chemother, 2010).

What all share (assay type): functional, organism-based
Assay [1] deals with Pseudomonas aeruginosa. Kind of assay: Antimicrobial activity against 10^9 CFU/ml Pseudomonas aeruginosa URMC1 after 24 hrs by time-kill assay.
The test system of assay [2] is Pseudomonas aeruginosa. Kind of assay: Antimicrobial activity against 10^8 CFU/ml Pseudomonas aeruginosa PAO1 after 24 hrs by time-kill assay.
Assay [3] relates to Pseudomonas aeruginosa. The assay is described as follows: Antimicrobial activity against 10^8 CFU/ml Pseudomonas aeruginosa URMC2 after 24 hrs by time-kill assay.
In assay [4] the test system is Pseudomonas aeruginosa. Kind of assay: Antimicrobial activity against 10^9 CFU/ml Pseudomonas aeruginosa PAO1 after 24 hrs by time-kill assay.
Assay [5] deals with Pseudomonas aeruginosa. Kind of assay: Antimicrobial activity against 10^9 CFU/ml Pseudomonas aeruginosa URMC2 after 24 hrs by time-kill assay.
Assay [6] deals with Pseudomonas aeruginosa. The assay is described as follows: Antimicrobial activity against 10^6 CFU/ml Pseudomonas aeruginosa URMC2 after 24 hrs by time-kill assay.
In assay [7] the test system is Pseudomonas aeruginosa. Kind of assay: Antimicrobial activity against 10^8 CFU/ml Pseudomonas aeruginosa URMC1 after 24 hrs by time-kill assay.
The subject of assay [8] is Pseudomonas aeruginosa. The assay is described as follows: Antimicrobial activity against 10^6 CFU/ml Pseudomonas aeruginosa URMC1 after 24 hrs by time-kill assay.
The subject of assay [9] is Pseudomonas aeruginosa. Kind of assay: Antimicrobial activity against 10^6 CFU/ml Pseudomonas aeruginosa PAO1 after 24 hrs by time-kill assay.
Assay [10] relates to Pseudomonas aeruginosa. The assay is described as follows: Antimicrobial activity against 10^9 CFU/ml Pseudomonas aeruginosa PAO1 at 4 to 128 mg/L after 24 hrs by time-kill assay.
Assay [11] has as its system Pseudomonas aeruginosa. Kind of assay: Antimicrobial activity against Pseudomonas aeruginosa assessed as destabilization of bacterial outer membrane by receptor occupancy assay.
In assay [12] the test system is Pseudomonas aeruginosa. The assay is described as follows: Bactericidal activity against 10^6 CFU/ml Pseudomonas aeruginosa PAO1 at >= 16 times MIC up to 30 mins by time-kill assay.
The test system of assay [13] is Pseudomonas aeruginosa. Kind of assay: Bactericidal activity against 10^6 CFU/ml Pseudomonas aeruginosa URMC2 at 1 to 4 times MIC up to 1 hr by time-kill assay.
The subject of assay [14] is Pseudomonas aeruginosa. Kind of assay: Bactericidal activity against 10^6 CFU/ml Pseudomonas aeruginosa PAO1 at 1 to 4 times MIC up to 1 hr by time-kill assay.
For assay [15], the system named is Pseudomonas aeruginosa. Kind of assay: Antimicrobial activity against 10^6 CFU/ml Pseudomonas aeruginosa PAO1 at 2 to 16 mg/L after 24 hrs by time-kill assay.
Assay [16] concerns Pseudomonas aeruginosa. Kind of assay: Bactericidal activity against 10^6 CFU/ml Pseudomonas aeruginosa URMC1 at 1 to 4 times MIC up to 1 hr by time-kill assay.
The subject of assay [17] is Pseudomonas aeruginosa. The assay is described as follows: Antimicrobial activity against 10^9.4 CFU/ml Pseudomonas aeruginosa PAO1 at 16 mg/L after 0.75 hrs by time-kill assay.
Assay [18] deals with Pseudomonas aeruginosa. Kind of assay: Antimicrobial activity against 10^9.4 CFU/ml Pseudomonas aeruginosa PAO1 at 16 mg/L after 24 hrs by time-kill assay.
The subject of assay [19] is Pseudomonas aeruginosa. The assay is described as follows: Antimicrobial activity against 10^9.4 CFU/ml Pseudomonas aeruginosa PAO1 at 64 mg/L after 0.75 hrs by time-kill assay.
In assay [20] the test system is Pseudomonas aeruginosa. The assay is described as follows: Bactericidal activity against 10^6 CFU/ml Pseudomonas aeruginosa URMC1 at >= 16 times MIC up to 30 mins by time-kill assay.
Assay [21] concerns Pseudomonas aeruginosa. The assay is described as follows: Bactericidal activity against 10^6 CFU/ml Pseudomonas aeruginosa URMC2 at >= 16 times MIC up to 30 mins by time-kill assay.
Assay [22] concerns Pseudomonas aeruginosa. Kind of assay: Antimicrobial activity against 10^9 CFU/ml Pseudomonas aeruginosa PAO1 after 8 to 12 hrs by time-kill assay.
The subject of assay [23] is Pseudomonas aeruginosa. The assay is described as follows: Antimicrobial activity against 10^9.4 CFU/ml Pseudomonas aeruginosa PAO1 at 64 mg/L after 24 hrs by time-kill assay.
In assay [24] the test system is Pseudomonas aeruginosa. Kind of assay: Antimicrobial activity against 10^8 CFU/ml Pseudomonas aeruginosa PAO1 at 4 to 32 mg/L after 24 hrs by time-kill assay.

The source made the active and inactive calls. The calls are words filed in the database; no cut-off is given here. A value given as a limit tells only on which side of the number the result lay.

What is called EC50 is the midpoint of the concentration-response curve. For COLISTIN [listing 1 of 2 here], the EC50 worked out at 4.62 µg/mL in assay [1]; 1.49 µg/mL in [2]; 2.56 µg/mL in assay [3]; 6.22 µg/mL in [4]; 3.5 µg/mL in assay [5]; 1.15 µg/mL in assay [6]. In addition, the results for the EC50 in [7], in assay [8] and in [9] were 2.69 µg/mL, 0.736 µg/mL and 0.777 µg/mL, respectively.

For COLISTIN [listing 2 of 2 here], the outcome in [10], in [15], in assay [22] and in assay [24] was inactive. In addition, the Activity in [11] was 53.7%; in assay [6], “Dose-dependent effect”; in [8], “Dose-dependent effect”; in assay [9], “Dose-dependent effect”. In addition, the result in assay [12], in assay [13], in [14], in [16], in assay [20] and in [21] was Active. The log10CFU/ml in assay [17] is greater than 5; in assay [18], 5; in [19], greater than 5; in assay [23] it was greater than 5.
